In PubChem BioAssay (NCI):
Where “and” joins values, the source holds several entries; their conditions need not be identical. Equal entries are not always repeated.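 Compound exposure: 48 hours, 5 concentrations, 96-well plates. Abbreviation: GI50, concentration required for 50% inhibition of growth. Definition used: TGI = concentration required for complete inhibition of growth.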

Assays:
Assay in all cases: NCI anticancer screen, dose series, 48 h
[1] = system: DU-145 prostate
[2] = system: MDA-MB-231 breast
[3] = system: MDA-MB-435
[4] = system: MOLT-4 leukemia
[5] = system: NCI-H23 lung
[6] = system: RXF 393 renal
[7] = system: SF-295 CNS
[8] = system: SNB-75 CNS
[9] = system: SW-620 colon
[10] = system: TK-10 renal

| Compound | GI50 [1] | TGI [1] | GI50 [2] | TGI [2] | GI50 [3] | TGI [3] | GI50 [4] | TGI [4] | GI50 [5] | TGI [5] | GI50 [6] | TGI [6] | GI50 [7] | GI50 [8] | TGI [8] | GI50 [9] | TGI [9] | GI50 [10] | TGI [10] | TGI [7] |
| --- | --- | --- | --- | --- | --- | --- | --- | --- | --- | --- | --- | --- | --- | --- | --- | --- | --- | --- | --- | --- |
| COc1c(C)cnc(Cn2cnc3c(Cl)nc(N)nc32)c1C | 0.0701 µM | > 100 µM | 0.559 µM | > 72.9 µM | 0.179 µM | 40.1 µM | 0.281 µM | > 100 µM | 0.262 µM | 19.8 µM | 0.799 µM | > 100 µM | 0.0948 µM | 3.13 µM | > 100 µM | 0.113 µM | > 100 µM | 0.0884 µM | > 100 µM |  |
| C=C1C(=O)O[C@H]2[C@H]1CC/C(Cn1cc(CNC(=O)c3cc4ccccc4[nH]3)nn1)=C\CC[C@@]1(C)O[C@@H]21 | 4.07 µM | 15.1 µM | 1.97 µM | 3.78 µM | 2.82 µM | 9.7 µM | 2.71 µM | 7.15 µM | 14.3 µM | 34.5 µM | 2.16 µM | 4.28 µM | 18.9 µM | 10.4 µM | 22.4 µM | 1.97 µM | 3.94 µM | 4.41 µM | 15.2 µM | 39 µM |
| O=C(/C=C/CN1CCCCC1)Nc1cc2c(Nc3ccc(F)c(Cl)c3F)ncnc2cc1OCCOC(F)F | 0.265 µM | 6.24 µM | 0.882 µM | 4.88 µM | 1.35 µM | 5.81 µM | 1.15 µM | 5.27 µM | 1.67 µM | 6.99 µM | 0.497 µM | 2.38 µM | 1.72 µM | 0.265 µM | 4.81 µM | 1.49 µM | 8.17 µM | < 0.01 µM | 1.36 µM | 6.42 µM |
| Nc1nc(N)c2nn(-c3ccc(C(=O)O)cc3)nc2n1 |  | > 100 µM |  | > 100 µM |  | > 100 µM |  | > 100 µM |  | > 100 µM |  | > 100 µM |  |  | > 100 µM |  | > 100 µM |  | > 100 µM | > 100 µM |
| CC(=O)OC1C(OC/C2=C/C3[C@@H](C(C)C)CC=C(C)[C@@H]3CC(OC(=O)/C=C/c3cn(C)cn3)[C@]3(C)C=C[C@@]2(O)O3)OCC(O)C1O (some centres not stated) | 0.0155 µM | 0.0475 µM | 0.421 µM | > 50 µM | 0.00626 µM | 0.0208 µM | 0.0415 µM | > 50 µM | 0.0227 µM | > 50 µM | 0.0149 µM | 0.0741 µM | 0.03 µM | 0.00575 µM | 0.0319 µM | 0.0188 µM | > 50 µM | 0.465 µM | > 50 µM | 0.296 µM |
| Oc1ccc(-c2nc(-c3ccc4oc5ccc(-c6[nH]c(-c7ccc(O)cc7)nc6-c6ccccc6)cc5c4c3)c(-c3ccccc3)[nH]2)cc1 | 4.83 µM | 20.6 µM | 2.57 µM | 7.46 µM | 2.85 µM | > 100 µM | 2.34 µM | 7.09 µM | 5.2 µM | 33.7 µM | 2.12 µM | 5.45 µM | 12.2 µM | 8.69 µM | 67.6 µM | 2.95 µM | 10.7 µM | 6.34 µM | 19.2 µM | 45.4 µM |
| C[CH2][Ge]1([CH2]C)[CH2]CC2(CCN(CCCN(C)C)C2)C[CH2]1 | 2.48 µM and 3.09 µM | 6.64 µM and 8.84 µM | 1.46 µM | 2.96 µM | 0.289 µM | 0.843 µM |  | 2.91 µM and 25.7 µM | 2.47 µM and 4.11 µM | 8.19 µM and 8.41 µM | 1.71 µM and 1.21 µM | 4.29 µM and 3.4 µM | 1.7 µM and 2.42 µM | 0.175 µM and 1.48 µM | 1.84 µM and 3.24 µM | 1.46 µM and 1.65 µM | 2.89 µM and 2.31 µM | 1.72 µM and 1.87 µM | 3.18 µM and 3.38 µM | 3.17 µM and 3.67 µM |
| COc1ccc(N2CCN(CC(=O)N3CCN(c4nnc(-c5ccc(Cl)cc5)c(-c5ccc(Cl)cc5)n4)CC3)CC2)cc1 | 75 µM | > 100 µM | 35.4 µM | > 100 µM | 9.06 µM | > 100 µM | 3.1 µM | > 100 µM | 35.9 µM | > 100 µM | 3.98 µM | 23.7 µM | 7.09 µM | 13.2 µM | 55.4 µM | 46.3 µM | > 100 µM | 9.18 µM | > 100 µM | > 100 µM |
| N#Cc1ccccc1C#C/C=C\C#Cc1cnccn1 | 25 µM | > 100 µM | 11.1 µM | 44.1 µM | 3.14 µM |  | > 24.3 µM | > 100 µM | 7.04 µM | 22.4 µM | > 37 µM | > 74.1 µM | 6 µM | > 73.9 µM | > 100 µM | 5.85 µM | > 41.9 µM | 13 µM | 63.6 µM | > 25 µM |
| CC(C)(O)C1CC(=O)C(C)(C2C(O)CC3(C)C4CC=C5C(CCC(O)C5(C)C)C4(C)C(=O)CC23C)O1 (configuration not stated) |  | > 100 µM |  | > 100 µM |  | > 100 µM |  | > 100 µM |  | > 100 µM |  | > 100 µM |  |  | > 100 µM |  | > 100 µM |  | > 100 µM | > 100 µM |
| N#Cc1c(-c2ccc(Cl)cc2)n([O-])c2ccccc2[n+]1=O | 18.1 µM | 32.8 µM | 6.95 µM | 24.2 µM | 13.7 µM | 27 µM | 2.31 µM | 4.77 µM | 16.2 µM | 31.3 µM | 11 µM | 33.2 µM | 16.4 µM | 21.4 µM | 39.5 µM | 12.7 µM | 34.1 µM | 11.7 µM | 24.6 µM | 30.3 µM |
| Cn1cc(C2=C(c3cn(CCCSC(=N)N)c4ccccc34)C(=O)NC2=O)c2ccccc21 | 4.78 µM | 12.5 µM | 2.11 µM | 9.52 µM | 1.81 µM | 5.59 µM | 1.93 µM | 8.08 µM | 3.32 µM | 9.72 µM | 1.18 µM | 2.82 µM | 5.19 µM | 0.674 µM | 4.33 µM | 1.66 µM | 5.51 µM | 3.88 µM | 10.7 µM | 14.1 µM |
| O=C(CN1C(=O)c2ccccc2C1=O)NC1(C(=O)O)CCCC1 |  | > 100 µM |  | > 100 µM |  | > 100 µM |  | > 100 µM |  | > 100 µM |  | > 100 µM |  |  | > 100 µM |  | > 100 µM |  | > 100 µM | > 100 µM |
| CC(CCC/C=C/CCCN(C)C(=N)N)CC(C)C1OC(=O)C(C)C(O)/C=C/C(C)C(O)C(C)C(O)C(C)C(O)CCCC(O)CC2(O)OC(CC(OC(=O)CC(=O)O)CC(O)CC(O)C(C)C(O)/C=C/C=C/C1C)CC(O)C2O (configuration not stated) | 2.22 µM and 6.85 µg/mL | 4.71 µM and 16 µg/mL | 5.59 µM and 8.55 µg/mL | 19 µM and 19.9 µg/mL | 1.9 µM and 2.45 µg/mL | 4.39 µM and 9.24 µg/mL | 2.78 µM and 11.1 µg/mL | 5.88 µM and 28.4 µg/mL | 5.99 µM and 13.7 µg/mL | 20.8 µM and 29.4 µg/mL | 1.98 µM and 1.89 µg/mL | 3.71 µM and 4.59 µg/mL | 4.16 µM and 11.7 µg/mL | 2.05 µM and 1.34 µg/mL | 4.94 µM and 7.44 µg/mL | 2.02 µM and 9.83 µg/mL | 3.7 µM and 21.7 µg/mL | 1.98 µM and 10.3 µg/mL | 4.17 µM and 21.4 µg/mL | 17 µM and 22.5 µg/mL |
| CCN(CC)CCCC(C)NC(=S)N/N=C(\C)c1ccccn1 (configuration not stated) | 3.79 µM | > 100 µM | 0.475 µM | > 100 µM | 5.17 µM | > 100 µM | 4.49 µM | > 100 µM | 5.22 µM | > 100 µM | 2.14 µM | 6.81 µM | 4.38 µM | 7.55 µM | > 100 µM | 4.03 µM | > 100 µM | 21.6 µM | > 100 µM | > 100 µM |
| Cc1ccc(SCN2CCCCC2)cc1 (tested in a mixture with another compound) |  | 28.1 µM |  | 27.7 µM |  | 25.6 µM |  | 16.2 µM |  | 22.9 µM |  | 22.3 µM |  |  | 22.5 µM |  | 56.5 µM |  | 45.3 µM | 33.1 µM |
| COc1ccc(C2CC(c3cccc(Nc4ccnc5cc(Cl)ccc45)c3)=NN2c2ccc(Cl)cc2)cc1 (configuration not stated) | 28.4 µM | > 100 µM | 4.84 µM | 65.2 µM | 0.717 µM | 49.6 µM | 3.18 µM | 69.5 µM | 17.5 µM | > 100 µM | 17.5 µM | 74.8 µM | 5.8 µM | 12.5 µM | 97.9 µM | 0.533 µM | 21.6 µM | 12.9 µM | > 100 µM | 23.3 µM |
| Cn1c(N)c(N=Nc2ccc(S(N)(=O)=O)cc2)c(=O)n(C)c1=O |  | > 100 µM |  | > 100 µM |  | > 100 µM |  | > 100 µM |  | > 100 µM |  | > 100 µM |  |  | 56.2 µM |  | > 100 µM |  | > 100 µM | > 100 µM |
